From ChEMBL document CHEMBL1201862, “PubChem BioAssay data set” (2004) come the findings set out here.

Test systems include KM12; Malme-3M; SR; TK-10; CCRF-CEM; HCC 2998; OVCAR-3; NCI-H23; IGROV-1; HL-60; A549; RPMI-8226; A498; SK-MEL-2; NCI-H522; ACHN; U-251; UO-31.
What all share (experiment): NCI-60 cell line screen, 48 h

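Growth conditions: 96-well plates. Treatment: test compound, 48 hours, 5 concentrations. Analysis: linear interpolation between bracketing concentrations; unreached endpoints set to highest concentration. Here, GI50 denotes the concentration required for 50% inhibition of growth.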 Calls of active or inactive are those of the source. Rule as the data show it: active = GI50 up to about 1.1 µM and inactive = higher. A value given as a limit tells only on which side of the number the result lay.

As to `Cc1c(Cl)ccc2c(=O)c3cccc(CC(=O)O)c3oc12`, the GI50 in the assay on KM12, in the assay on Malme-3M, in the assay on SR, with TK-10, in the assay on CCRF-CEM and in the assay with HCC 2998 was > 100 µM (inactive) in each case. The GI50 in the assay with OVCAR-3, with NCI-H23, in the assay with IGROV-1, in the assay with HL-60, in the assay on A549 and with RPMI-8226 was > 100 µM (inactive) throughout. The GI50 in the assay with A498, in the assay on SK-MEL-2, in the assay with NCI-H522, in the assay on ACHN, with U-251 and in the assay on UO-31 was > 100 µM (inactive) throughout.
With `Oc1nc2cc3nc(O)c(O)nc3cc2nc1O`, the GI50 in the assay with KM12 was > 100 µM (inactive); in the assay on Malme-3M it was > 100 µM (inactive); in the assay on SR it was > 10 µM (inactive); with TK-10, > 100 µM (inactive); in the assay on CCRF-CEM, > 100 µM (inactive); in the assay on HCC 2998 it was > 100 µM (inactive). Further, the GI50 in the assay on OVCAR-3, in the assay on NCI-H23, in the assay with IGROV-1, with HL-60, in the assay with A549 and in the assay on RPMI-8226 was > 100 µM (inactive) throughout. For the same compound, the GI50 in the assay on A498, with SK-MEL-2, in the assay with NCI-H522, with ACHN, with U-251 and in the assay with UO-31 was > 100 µM (inactive) in each case.
`CC1=CC[C@](C)(O)[C@@]2(C)CC[C@H]3C(=C(C)C)C(=O)C[C@]3(C)C[C@H]12`: the GI50 in the assay with KM12 was 12.9 µM (inactive); with SR it was 12.5 µM (inactive); in the assay with TK-10 it was > 50 µM (inactive); in the assay with CCRF-CEM, 10.8 µM (inactive); in the assay with HCC 2998 it was > 50 µM (inactive); in the assay with OVCAR-3, 36.3 µM (inactive). For the same compound, the GI50 was 34.1 µM (inactive) in the assay with NCI-H23; 19.3 µM (inactive) in the assay with IGROV-1; 6.55 µM (inactive) in the assay on HL-60; 46.8 µM (inactive) with A549; 11.2 µM (inactive) in the assay with RPMI-8226; > 50 µM (inactive) in the assay with A498. Besides, the GI50 in the assay on SK-MEL-2 is > 50 µM (inactive); in the assay on NCI-H522 it was 10.4 µM (inactive); in the assay on ACHN, 38.7 µM (inactive); with U-251 it was > 50 µM (inactive); in the assay on UO-31, 28.8 µM (inactive).
As to `Cc1cccc2c1CC(C1OC(=O)c3ccccc31)C2=O` (stereo unspecified), the GI50 in the assay with KM12, with Malme-3M, in the assay on SR, in the assay with TK-10, with CCRF-CEM and in the assay with HCC 2998 was > 100 µM (inactive) throughout. In addition, the GI50 in the assay on OVCAR-3, with NCI-H23, in the assay on IGROV-1, in the assay on HL-60, in the assay with A549 and in the assay on RPMI-8226 was > 100 µM (inactive) throughout. Moreover, the GI50 with A498, with SK-MEL-2, in the assay with NCI-H522, with ACHN, with U-251 and in the assay with UO-31 was > 100 µM (inactive) in each case.
Turning to `CC(C)(C)OC(=O)NC(Cc1ccc(OCc2ccccc2)cn1)C(=O)N1CCCCC1` (stereo unspecified), the GI50 in the assay on KM12 was 30.9 µM (inactive); with Malme-3M it was 40.5 µM (inactive); with SR it was 28.6 µM (inactive); in the assay on TK-10, 37.1 µM (inactive); in the assay on CCRF-CEM, 31.8 µM (inactive); in the assay on HCC 2998 it was 19.9 µM (inactive). Also, the GI50 in the assay on OVCAR-3 was 35.6 µM (inactive); with NCI-H23, 31.1 µM (inactive); with IGROV-1, 53.7 µM (inactive); in the assay on HL-60, 27 µM (inactive); in the assay on A549 it was 49.7 µM (inactive); with RPMI-8226, 20.7 µM (inactive). The GI50 with A498 was 34.5 µM (inactive); in the assay on SK-MEL-2, 25.5 µM (inactive); in the assay with NCI-H522 it was 32.1 µM (inactive); in the assay with ACHN, 41.4 µM (inactive); with U-251, 42.4 µM (inactive); in the assay on UO-31 it was 27.9 µM (inactive).
As to `O=C1c2ccccc2C(=O)N1c1nc(-c2ccc(Cl)cc2)cc(N2N=C(c3ccc(Br)cc3)CC2c2ccccc2)n1` (stereo unspecified), the GI50 in the assay on KM12 is 9.4 µM (inactive); in the assay on Malme-3M, > 44.7 µM (inactive); in the assay on SR it was 0.65 µM (active); in the assay on TK-10, 7.98 µM (inactive); in the assay on CCRF-CEM, 4.13 µM (inactive); in the assay on HCC 2998, 0.301 µM (active). Moreover, the GI50 was 0.863 µM (active) in the assay with OVCAR-3; 5.37 µM (inactive) in the assay with NCI-H23; 2.84 µM (inactive) in the assay with IGROV-1; 2.9 µM (inactive) in the assay on HL-60; 3.24 µM (inactive) in the assay on A549; 2.7 µM (inactive) in the assay with RPMI-8226. Also, the GI50 in the assay with A498 was 19.2 µM (inactive); in the assay with SK-MEL-2, 3.26 µM (inactive); with NCI-H522 it was 2.09 µM (inactive); with ACHN, 3.9 µM (inactive); in the assay with U-251, 1.67 µM (inactive); with UO-31, 4.81 µM (inactive).
Regarding `COC(=O)c1ccccc1C1CN=NC12Cc1ccc3ccccc3c1C2=O` (stereo unspecified), the GI50 with KM12 is 52.5 µM (inactive); with Malme-3M, 30.8 µM (inactive); with SR, 36.5 µM (inactive); in the assay on TK-10, > 100 µM (inactive); with CCRF-CEM it was 70.5 µM (inactive); in the assay with HCC 2998 it was > 100 µM (inactive). In addition, the GI50 in the assay with OVCAR-3 was 17.7 µM (inactive); in the assay with IGROV-1 it was > 100 µM (inactive); with HL-60 it was 8.43 µM (inactive); with A549, 85.3 µM (inactive); with RPMI-8226 it was 13.4 µM (inactive); in the assay on A498 it was > 100 µM (inactive). Moreover, the GI50 is > 100 µM (inactive) with SK-MEL-2; 80.4 µM (inactive) in the assay on NCI-H522; > 100 µM (inactive) in the assay on ACHN; > 100 µM (inactive) with U-251; > 100 µM (inactive) in the assay on UO-31.
`O=c1c2c(sc3ccccc13)NCN(CCc1ccccc1)C2`: the GI50 in the assay on KM12 was 27.9 µM (inactive); with Malme-3M it was 43.7 µM (inactive); in the assay on SR, 42.2 µM (inactive); in the assay on CCRF-CEM, 43.9 µM (inactive); with HCC 2998, 22.1 µM (inactive); in the assay on OVCAR-3 it was 73.3 µM (inactive). Besides, the GI50 is 38.1 µM (inactive) in the assay on NCI-H23; 24.7 µM (inactive) in the assay with IGROV-1; > 100 µM (inactive) in the assay with HL-60; 49 µM (inactive) in the assay with A549; 19.9 µM (inactive) in the assay with RPMI-8226; 67.9 µM (inactive) in the assay with A498. The GI50 is 23.8 µM (inactive) in the assay with SK-MEL-2; 31.7 µM (inactive) with NCI-H522; 35.2 µM (inactive) with ACHN; 36.8 µM (inactive) in the assay with U-251; 33.7 µM (inactive) in the assay on UO-31.
Turning to `Cc1cc(C(F)(F)F)cc(-n2nc(NS(=O)(=O)c3cc(C)c(Cl)cc3S)nc2N)n1`, the GI50 in the assay on KM12 is 42.9 µM (inactive); in the assay on Malme-3M, > 100 µM (inactive); in the assay with SR, 23.4 µM (inactive); with TK-10 it was > 100 µM (inactive); with CCRF-CEM, 23.7 µM (inactive); in the assay with HCC 2998 it was 34.8 µM (inactive). Besides, the GI50 in the assay with OVCAR-3 was 51.3 µM (inactive); in the assay with IGROV-1, 36.6 µM (inactive); in the assay on HL-60 it was 32.8 µM (inactive); with A549, 36.6 µM (inactive); in the assay with RPMI-8226, 65.8 µM (inactive); in the assay on A498, 26 µM (inactive). Besides, the GI50 with SK-MEL-2 was 26.2 µM (inactive); with NCI-H522, 32 µM (inactive); with ACHN it was 53.3 µM (inactive); with U-251, 42.2 µM (inactive).
With `CC1(C)OCC(COC(=O)C=[N+]=[N-])O1` (stereo unspecified), the GI50 in the assay with KM12, in the assay on Malme-3M, with SR, with TK-10, in the assay with CCRF-CEM and in the assay on HCC 2998 was > 100 µM (inactive) throughout. Further, the GI50 with OVCAR-3, in the assay on NCI-H23, in the assay with IGROV-1, in the assay with HL-60, in the assay with RPMI-8226 and in the assay with A498 was > 100 µM (inactive) throughout. Further, the GI50 in the assay with SK-MEL-2, in the assay with NCI-H522, with ACHN, in the assay with U-251 and in the assay on UO-31 was > 100 µM (inactive) each time.
With `CC1=C(C)C2(C#N)C(=O)N3C(=NC(c4ccccc4)NC3c3ccccc3)C2(C#N)C(c2ccccc2)N1` (stereo unspecified), the GI50 in the assay on KM12, in the assay on Malme-3M, in the assay on SR, in the assay with TK-10, with CCRF-CEM and with HCC 2998 was > 100 µM (inactive) throughout. Besides, the GI50 with NCI-H23, in the assay on IGROV-1, in the assay on HL-60, with A549, in the assay on RPMI-8226 and in the assay on A498 was > 100 µM (inactive) throughout. In addition, the GI50 in the assay on SK-MEL-2, in the assay on NCI-H522, in the assay on ACHN, in the assay with U-251 and in the assay with UO-31 was > 100 µM (inactive) each time.
